Data: patent publication US20220380378A1 (ESSA Pharma, Inc., priority 2021, published 2022)

Key:
[1] = Microsomal stability assay, liver microsome half-life (human); format: in vitro ADME; conditions: pH 7.4; human liver microsomes 0.5 mg/mL, 1 μM compound, 37° C.; read-out: Liver microsome T1/2 Human
Description: (§1) Microsomal Stability Assay: Microsomal stability assay is a widely used in vitro model to characterize the metabolic conversion by phase I enzymes, such as cytochrome P450 (CYP) enzymes. Since metabolism is known to be highly variable in different species, microsomal stability assay is commonly run in multiple species. Metabolic stability of testing compound can be evaluated using human, rat, mouse, or other animal liver or intestine microsomes to predict intrinsic clearance.
(§2) The assay was carried out in 96-well microtiter plates at 37° C. Reaction mixtures (25 μL) contained a final concentration of 1 μM test compound, 0.5 mg/mL liver microsomes protein, and 1 mM NADPH and/or 1 mM UDPGA (with alamethicin) in 100 mM potassium phosphate, pH 7.4 buffer with 3 mM MgCl2. The incubation was done with N=1, but duplicate incubation at each time point can be prepared if necessary. At each of the time points (for example, 0, 15, 30, and 60 minutes), 150 μL of quench solution (100% acetonitrile with 0.1% formic acid) with internal standard was transferred to each well. Besides the zero minute controls, mixtures containing the same components except the NADPH can also be prepared as the negative control. Verapamil was included as a positive control to verify assay performance. Plates were sealed, vortexed, and centrifuged at 4° C. for 15 minutes at 4000 rpm. The supernatant is transferred to fresh plates for LC/MS/MS analysis.
(§3) Summarized conditions: [Compound]=1 μM, [LM]=0.5 mg/mL, [NADPH]=1 mM and/or [UDPGA]=1 mM, Buffer=100 mM Potassium Phosphate, pH 7.4 with 3 mM MgCl2, Time=0, 15, 30, and 60 min, and Temperature=37° C.
(§4) All samples were analyzed on LC/MS/MS using an AB Sciex API 4000 instrument, coupled to a Shimadzu LC-20AD LC Pump system. Analytical samples were separated using a Waters Atlantis T3 dC18 reverse phase HPLC column (20 mm×2.1 mm) at a flow rate of 0.5 mL/min. The mobile phase consisted of 0.1% formic acid in water (solvent A) and 0.1% formic acid in 100% acetonitrile (solvent B).
(§5) The extent of metabolism is calculated as the disappearance of the test compound, compared to the 0-min time incubation. Initial rates are calculated for the compound concentration and used to determine half-life (t½). […]

[2] = Microsomal stability assay, liver microsome half-life (mouse); format: in vitro ADME; conditions: pH 7.4; mouse liver microsomes 0.5 mg/mL, 1 μM compound, 37° C.; read-out: Liver microsome T1/2 Mouse
Description: as §1, §2, §3, §4, §5

[3] = Microsomal stability assay, liver microsome half-life (rat); format: in vitro ADME; conditions: pH 7.4; rat liver microsomes 0.5 mg/mL, 1 μM compound, 37° C.; read-out: Liver microsome T1/2 Rat
Description: as §1, §2, §3, §4, §5

[4] = Microsomal stability assay, liver microsome half-life (dog); format: in vitro ADME; conditions: pH 7.4; dog liver microsomes 0.5 mg/mL, 1 μM compound, 37° C.; read-out: Liver microsome T1/2 Dog
Description: as §1, §2, §3, §4
(§6) The extent of metabolism is calculated as the disappearance of the test compound, compared to the 0-min time incubation. Initial rates are calculated for the compound concentration and used to determine half-life (t½).

[5] = Microsomal stability assay, liver microsome half-life (monkey); format: in vitro ADME; conditions: pH 7.4; monkey liver microsomes 0.5 mg/mL, 1 μM compound, 37° C.; read-out: Liver microsome T1/2 Monkey
Description: as §1, §2, §3, §4, §6

androgen receptor (AR) = molecular target: T1, androgen receptor (AR) (Homo sapiens, UniProt P10275, T878A); assay: Androgen-induced PSA (6.1 kb)-luciferase reporter assay in LNCaP cells (R1881 1 nM); format: cell-based; design: endogenous in cells; host or cells: LNCaP; conditions: 24 h, read-out: PSA-Luc IC50 Range
T1 sequence (P10275 1-920 T878A): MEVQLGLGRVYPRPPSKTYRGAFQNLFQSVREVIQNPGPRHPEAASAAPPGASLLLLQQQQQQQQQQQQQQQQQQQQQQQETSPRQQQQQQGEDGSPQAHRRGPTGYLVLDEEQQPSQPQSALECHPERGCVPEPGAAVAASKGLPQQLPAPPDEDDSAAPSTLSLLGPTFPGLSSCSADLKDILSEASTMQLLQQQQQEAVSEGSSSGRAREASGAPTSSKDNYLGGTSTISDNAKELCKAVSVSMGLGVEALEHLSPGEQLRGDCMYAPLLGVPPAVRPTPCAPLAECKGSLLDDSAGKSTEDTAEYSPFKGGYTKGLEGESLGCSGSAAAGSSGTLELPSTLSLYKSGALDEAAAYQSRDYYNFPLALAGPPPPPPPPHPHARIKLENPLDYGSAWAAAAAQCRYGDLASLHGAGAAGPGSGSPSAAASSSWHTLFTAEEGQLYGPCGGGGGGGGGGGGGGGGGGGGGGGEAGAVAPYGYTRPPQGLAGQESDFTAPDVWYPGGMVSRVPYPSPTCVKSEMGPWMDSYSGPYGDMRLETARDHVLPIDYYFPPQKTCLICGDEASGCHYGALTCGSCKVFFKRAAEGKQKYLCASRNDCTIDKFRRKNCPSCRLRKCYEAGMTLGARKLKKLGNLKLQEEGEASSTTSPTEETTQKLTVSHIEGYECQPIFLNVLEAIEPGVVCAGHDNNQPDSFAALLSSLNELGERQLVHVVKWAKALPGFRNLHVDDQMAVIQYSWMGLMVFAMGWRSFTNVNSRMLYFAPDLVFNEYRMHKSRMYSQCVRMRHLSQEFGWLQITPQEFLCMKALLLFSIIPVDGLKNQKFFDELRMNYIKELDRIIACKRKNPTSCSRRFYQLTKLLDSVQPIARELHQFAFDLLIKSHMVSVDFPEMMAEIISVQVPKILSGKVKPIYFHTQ
Summary of the method: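 Compound or vehicle was added 1 h before 1 nM R1881 to LNCaP cells carrying a transiently transfected (24 h) PSA (6.1 kb)-luciferase reporter. After 24 h androgen exposure, lysate luminescence was normalized to protein and expressed versus vehicle plus R1881 for IC50.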

half-life at 1 μM [1] [h]	half-life at 1 μM [2] [h]	half-life at 1 μM [3] [h]	half-life at 1 μM [4] [h]	half-life at 1 μM [5] [h]	IC50 (androgen receptor (AR)) [µM]	SMILES
> 2	1.6	0.85	> 2	0.633	< 0.5	CC(C)(c1ccc(OCc2cnc(NS(C)(=O)=O)nc2N2CCOCC2)cc1)c1cc(Cl)c(OCCCl)c(C#N)c1 [Compound A100]
> 2	> 2	> 2	> 2	> 2	< 0.5	CC(C)(c1ccc(-c2ccc3nc(NS(C)(=O)=O)cnc3c2)cc1)c1cc(Cl)c(OCCCl)c(C#N)c1 [Compound A107, N-(6-(4-(2-(3-chloro-4-(2-chloroethoxy)-5-cyanophenyl)propan-2-yl)phenyl)quinoxalin-2-yl)methanesulfonamide]
> 2	> 2	> 2	> 2	> 2	0.5 to 2	CC(C)(c1ccc(OCc2ccnc(NS(C)(=O)=O)c2F)cc1)c1cc(Cl)c(OCCCl)c(C#N)c1 [Compound A48]
> 2	> 2	1.62	> 2	0.95	0.5 to 2	CC(C)(c1ccc(OCC23CC(NS(C)(=O)=O)(C2)C3)cc1)c1cc(Cl)c(OCCCl)c(C#N)c1 [Compound A132, N-(3-((4-(2-(3-chloro-4-(2-chloroethoxy)-5-cyanophenyl)propan-2-yl)phenoxy)methyl)bicyclo[1.1.1]pentan-1-yl)methanesulfonamide]
> 2	> 2				0.5 to 2	CS(=O)(=O)Nc1nccc(COc2ccc3c(-c4cc(Cl)c(OCCCl)c(C#N)c4)cccc3c2)n1 [Compound A34, N-(4-(((5-(3-chloro-4-(2-chloroethoxy)-5-cyanophenyl)naphthalen-2-yl)oxy)methyl)pyrimidin-2-yl)methanesulfonamide]
> 2	> 2	1.63	> 2	0.85	0.5 to 2	CC(C)(c1ccc(OCc2ccnc(NS(C)(=O)=O)n2)cc1)c1cc(F)c(N2CCOCC2)c(C#N)c1 [Compound A262]
> 2	> 2	0.433	0.833	0.933	0.5 to 2	CC(C)(c1ccc(-c2cnc3c(c2)CCC3NS(C)(=O)=O)cc1)c1cc(Cl)c(OCCCl)c(C#N)c1 (centres unmarked) [Compound A217]

Continued, molecule first:

SMILES	half-life at 1 μM [1] [h]	half-life at 1 μM [2] [h]	half-life at 1 μM [3] [h]	half-life at 1 μM [4] [h]	half-life at 1 μM [5] [h]	IC50 (androgen receptor (AR)) [µM]
CS(=O)(=O)Nc1ncc2cc(-c3ccc(Oc4cc(Cl)c(OCCCl)c(C#N)c4)cc3)ccc2n1 [Compound A116, N-(6-(4-(3-chloro-4-(2-chloroethoxy)-5-cyanophenoxy)phenyl)quinazolin-2-yl)methanesulfonamide]	> 2	> 2	> 2	> 2	> 2	0.5 to 2
CS(=O)(=O)NC1CCN(Cc2ccc3c(ccn3-c3cc(Cl)c(OCCCl)c(C#N)c3)c2)CC1(F)F (centres unmarked) [Compound A239]	1.88	> 2	> 2	> 2	0.65	0.5 to 2
CS(=O)(=O)NC1CCN(CCc2ccc3c(ccn3-c3cc(Cl)c(OCCCl)c(C#N)c3)c2)CC1 [Compound A187]	> 2	> 2	> 2	> 2	1.47	0.5 to 2
COc1c(Cl)cc(C(C)(C)c2ccc(-c3ccc4nc(NS(C)(=O)=O)cnc4c3)cc2)cc1C#N [Compound A269]	> 2	> 2	> 2	1.32	> 2	> 2
CS(=O)(=O)Nc1nccc(COc2ccc3c(c2)CCC=C3c2cc(Cl)c(OCCCl)c(C#N)c2)n1 [Compound A32, N-(4-(((5-(3-chloro-4-(2-chloroethoxy)-5-cyanophenyl)-7,8-dihydronaphthalen-2-yl)oxy)methyl)pyrimidin-2-yl)methanesulfonamide]	1.14	> 2				0.5 to 2
CS(=O)(=O)NC1CCN(Cc2ccc3c(ccn3-c3cc(Cl)c(OCCCl)c(C#N)c3)c2)CC1 [Compound A169]	> 2	> 2	> 2	> 2	> 2	> 2
CS(=O)(=O)Nc1cnc2cc(-c3ccc4c(c3)CCC4c3cc(Cl)c(OCCCl)c(C#N)c3)ccc2n1 (centres unmarked) [Compound A270]	> 2	> 2	> 2	> 2	> 2	0.5 to 2
CNC(=O)c1ccc(N2C(=S)N(c3ccc(C#N)c(C(F)(F)F)c3)C(=O)C2(C)C)cc1F [Enzalutamide, enzalutamide, reference compound]	> 2	> 2	> 2	> 2	> 2	
CS(=O)(=O)NC12CC(COc3ccc4c(c3)CCC4c3cc(Cl)c(OCCCl)c(C#N)c3)(C1)C2 (centres unmarked) [Compound A246]	1.48	> 2	1.08	1.32	1.3	0.5 to 2
CS(=O)(=O)Nc1nccc(COc2ccc3c(c2)CCCC3c2cc(Cl)c(OCCCl)c(C#N)c2)n1 (centres unmarked) [Compound A33, N-(4-(((5-(3-chloro-4-(2-chloroethoxy)-5-cyanophenyl)-5,6,7,8-tetrahydronaphthalen-2-yl)oxy)methyl)pyrimidin-2-yl)methanesulfonamide]	> 2	> 2				0.5 to 2
CS(=O)(=O)Nc1nccc(COc2nnc(-c3cc(Cl)c(OCCCl)c(C#N)c3)s2)n1 [Compound A41]	> 2	> 2				> 2
